Laboratory results as given in publication PMC11526092 (2024).

Tested on: h1_(TTAA)2 (DNA, hairpin) CGTTAATTAACGCCCCCGTTAATTAACG
Assay: SPR, steady state, two-site fit
Conditions: Na+ 100 mM (NaCl), 1 mM EDTA; 10 mM MES pH 6.25, 0.005% P20, 25 °C; site 1 of 2; error about ±10%

N=C(N)c1ccc(OCCCCCOc2ccc(C(=N)N)cc2)cc1
K1: 680 nM
